Experiment: Inhibition of PCSK9 transcriptional activity in human HepG2 cells by luciferase reporter based assay

With CC(C)(C)OC(=O)N1CCN(Cc2ccc3nc(NC(=O)c4ccc(S(=O)(=O)NCCC#N)cc4)sc3c2)CC1 the IC50 was 3.96 µM.

With CCOC(=O)c1ccc2nc(N3CCN(NC(=O)c4ccc(Cl)c(Cl)c4)CC3)sc2c1 the IC50 was 6.53 µM.
